2 compounds from patent US5547971A, “Use of leflunomide for inhibiting interleukin 8” (priority 1993, dated 1996) can be followed below.

One data set has as its system IL-8. Put plainly: IL-8 synthesis and liberation induced by lipopolysaccharide in isolated human blood mononuclear cells (IL-8 in the supernatant, sandwich enzyme immuno test). Conditions: for activity at 50 µM / activity at 100 µM: Homo sapiens, control without substance set at 100%, 37° C., 1 h, lipopolysaccharide-induced, read-out: IL-8 in the supernatant % +/- standard deviation; for activity at 50 µM: concentration 0.05 mmol/l; for activity at 100 µM: concentration 0.1 mmol/l; for effect on the IL-8 level / effect on the synthesis and liberation of cytokines from human blood cells: in words; for effect on the IL-8 level: experiments in Tab. 1. The class given is cell-based. The procedure: 10 ml of freshly prepared human citrate blood were carefully underlaid with 15 ml of Lymphoprep^(R) (Molter GmbH, Heidelberg) and then centrifuged at 400 ×g for 40 min. at 20° C. The cell fraction which was visible as a white ring at the phase boundary was removed with the aid of a syringe, diluted 1:1 (v/v) with PM-16 buffer (from Serva Feinbiochemica GmbH & Co. KG, Heidelberg) and then centrifuged, as above, for 10 min. […] Using a cell counter (type IT, from Coulter Diagnostics, Krefeld), the cell suspension, which is composed of about 90% lymphocytes and 10% monocytes, was adjusted to about 5 million cells/mi. Cell viability was monitored before and after the inhibition experiments using the known lactate dehydrogenase method.
The synthesis and liberation of cellular IL-8 was induced by adding a solution of 500 ng of lipopolysaccharide (Salmonella abortus equi, Sigma GmbH, Deisenhofen) in 0.01 ml of dimethyl sulfoxide/water (1:10, v/v) to 0.48 ml of the above-described cell fraction. At the same time, a solution of leflunomide or leflunomide metabolite in 0.01 ml of dimethyl sulfoxide (for the final concentration in each case, see Tab. 1) was added to the cell fraction and the mixture was left at 37° C. for 1h in a commercially available incubator. After cooling down to 0° C., the samples were centrifuged for 1 min. in a bench centrifuge and in each case 0.025 ml aliquots of the supernatant were examined for their […] content using a "sandwich" enzyme immuno test kit (from Biermann GmbH, Bad Nauheim) in accordance with the manufacturer's instructions. The control values were determined without the addition of leflunomide or its metabolites and set at 100%.

Data set [1] can be described thus: Metabolism of leflunomide in the mononuclear cell test sample (HPLC). The class given is in vitro ADME, human. The following applies: blood mononuclear cells; under the conditions employed; human mononuclear cell fraction; read-out: half life of metabolism of leflunomide to its metabolites (converted).
The test system of a further data set is mononuclear cells. The description is as above. The class given is in vitro ADME, human. The following applies: in words; under the experimental conditions employed.

Turning to `C/C(O)=C(\C#N)C(=O)Nc1ccc(C(F)(F)F)cc1` [Leflunomide metabolite, N-(4-trifluoromethylphenyl)-2-cyano-3-hydroxycrotonamide], in the data set with IL-8, the activity at 50 µM was 97%; the activity at 100 µM was 99%; the “effect on the IL-8 level” value is “practically no effect on the IL-8 level”; the “effect on the synthesis and liberation of cytokines from human blood cells” value is given as “does not exhibit this advantageous effect”.

`Cc1oncc1C(=O)Nc1ccc(C(F)(F)F)cc1` [Leflunomide, N-(4-trifluoromethylphenyl)-5-methylisoxazole-4-carboxamide]: in the data set on IL-8, the activity at 50 µM stood at 83%; the activity at 100 µM amounted to 61 ± 11%; the “effect on the IL-8 level” value was “IL-8 level is clearly lowered”; the “effect on the synthesis and liberation of cytokines from human blood cells” value is “strong inhibitory effect”. Besides, in data set [1], the half-life (in general, the time needed for the level to fall by half in the phase considered) was about 10 h. Further, in the data set with mononuclear cells, the metabolism of leflunomide result is given as “no appreciable metabolism”.
